Experiments:
[1] = target: T1, integrin α4β7 (Homo sapiens, UniProt P13612+P26010); test: Fluorescence Polarization (FP) assay for α4β7 binding, competition with fluorescein-labeled peptide; settings: 6.5 nM integrin α4β7, 3 nM fluorescein-labeled peptide, 2 mM MnCl2; read-out: FP Assay (Example 5) IC50
T1 sequence (P13612 34-977 limits assumed): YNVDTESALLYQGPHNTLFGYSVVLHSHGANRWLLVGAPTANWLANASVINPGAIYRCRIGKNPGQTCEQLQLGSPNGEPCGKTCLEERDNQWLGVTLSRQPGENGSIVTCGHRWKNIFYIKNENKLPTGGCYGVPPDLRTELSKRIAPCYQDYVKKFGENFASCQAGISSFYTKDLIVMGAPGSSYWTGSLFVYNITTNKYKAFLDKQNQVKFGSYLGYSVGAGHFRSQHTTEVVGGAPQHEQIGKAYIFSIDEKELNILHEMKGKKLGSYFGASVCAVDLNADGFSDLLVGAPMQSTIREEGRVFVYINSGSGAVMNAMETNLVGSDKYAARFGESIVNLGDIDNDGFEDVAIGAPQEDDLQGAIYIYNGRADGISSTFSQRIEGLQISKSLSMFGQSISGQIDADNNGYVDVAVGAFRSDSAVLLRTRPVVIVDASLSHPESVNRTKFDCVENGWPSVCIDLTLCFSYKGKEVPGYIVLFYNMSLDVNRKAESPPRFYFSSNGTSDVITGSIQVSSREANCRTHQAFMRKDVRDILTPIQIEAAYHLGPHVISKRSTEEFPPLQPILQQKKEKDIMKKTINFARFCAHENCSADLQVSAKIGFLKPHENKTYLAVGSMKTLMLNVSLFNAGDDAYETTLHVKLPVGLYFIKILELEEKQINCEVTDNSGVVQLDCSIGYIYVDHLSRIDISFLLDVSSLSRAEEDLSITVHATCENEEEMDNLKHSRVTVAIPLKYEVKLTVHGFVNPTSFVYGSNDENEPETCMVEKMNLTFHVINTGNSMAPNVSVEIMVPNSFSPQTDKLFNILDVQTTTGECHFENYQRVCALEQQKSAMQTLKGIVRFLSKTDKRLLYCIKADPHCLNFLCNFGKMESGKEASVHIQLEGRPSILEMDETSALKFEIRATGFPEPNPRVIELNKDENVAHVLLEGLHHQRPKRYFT
T1 sequence (P26010 20-723 limits assumed): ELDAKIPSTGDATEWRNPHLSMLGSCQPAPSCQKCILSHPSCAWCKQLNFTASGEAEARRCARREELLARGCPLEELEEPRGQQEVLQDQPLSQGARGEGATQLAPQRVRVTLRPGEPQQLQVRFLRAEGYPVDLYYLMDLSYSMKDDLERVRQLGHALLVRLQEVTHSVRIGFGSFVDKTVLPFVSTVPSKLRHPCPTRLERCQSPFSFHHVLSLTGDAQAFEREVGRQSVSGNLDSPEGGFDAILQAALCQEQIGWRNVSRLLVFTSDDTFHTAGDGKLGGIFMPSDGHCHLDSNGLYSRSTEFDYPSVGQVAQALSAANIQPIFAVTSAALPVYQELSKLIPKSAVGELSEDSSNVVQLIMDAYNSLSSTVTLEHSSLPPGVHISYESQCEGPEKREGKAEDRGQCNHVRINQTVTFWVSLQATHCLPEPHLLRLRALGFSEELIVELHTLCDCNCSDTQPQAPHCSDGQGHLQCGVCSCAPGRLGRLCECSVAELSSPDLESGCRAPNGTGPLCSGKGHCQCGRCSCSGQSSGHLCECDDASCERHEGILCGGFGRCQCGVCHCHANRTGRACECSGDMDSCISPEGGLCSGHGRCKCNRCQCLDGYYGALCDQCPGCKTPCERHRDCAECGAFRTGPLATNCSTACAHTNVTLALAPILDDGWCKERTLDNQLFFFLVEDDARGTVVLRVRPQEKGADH
Procedure: (§1) Three in vitro assays were used to examine the α4β7 mechanistic process used by cells: 1) ligand:receptor affinity, 2) the avidity of those interactions on a cell's surface, and 3) how those interactions fare under an imposing force. In Example 5, a Fluorescence Polarization (FP) assay is used to measure compound activity through binding competition with the fluorescein-labeled peptide. In Example 6, the potency of compounds against α4β7 is measured in the cell-based ligand binding assay (LBA), using RPMI 8866 cells incubated with the compound samples in competition with soluble MAdCAM-1 ligand. In Example 7, activity of compounds is evaluated in a cell adhesion assay that mechanistically tests what occurs in vivo when trafficking cells utilize α4β7 to adhere to MAdCAM-1 expressing HEVs of the gut during the extravasation process. In the cell adhesion assay of Example 7, a MAdCAM1-(Fc) is coated on plastic, and α4β7 expressing cells (RPMI-8866) are allowed to adhere to the coated surface in the presence of the test compounds. Next, the force of washing with buffer is applied to cells thereby testing the strength of that adhesion. Unattached cells are removed and the remaining adherent cells are quantified.
Fluorescence Polarization (FP) assays were used to measure compound activity through binding competition with the fluorescein-labeled peptide […]{Lys(FITC)}. In the assay, 6.5 nM of integrin α4β7 was incubated with the test compound in 2 mM manganese chloride, 0.1 mM calcium chloride, 20 mM HEPES buffer at pH 7.3, 150 mM sodium chloride, 0.01% Triton X-100, 2% DMSO, and 3 nM of the fluorescein-labeled peptide. Running the assays in 384-well plates, the integrin protein was pre-incubated with the test compounds for 15 minutes at 22° C. before the fluorescein-labeled peptide was added. After the fluorescein-labeled peptide was added, the assay was incubated at 22° C. for 1 hour and fluorescence polarization was measured. IC50 values were determined by non-linear regression, four-parameter curve fitting.

[2] = target: T2, α4β7 (Homo sapiens, UniProt P13612+P26010); test: Cell adhesion assay, RPMI8866 cells adhering to MAdCAM coated plates; format: cell-based; settings: RPMI8866 cells on recombinant human MAdCAM coated plates; read-out: CA Assay (Example 7) IC50
T2 construct: α4β7 expressing cells (RPMI-8866); endogenous in cells; host or cells: RPMI 8866
T2 sequence (P13612 34-1032): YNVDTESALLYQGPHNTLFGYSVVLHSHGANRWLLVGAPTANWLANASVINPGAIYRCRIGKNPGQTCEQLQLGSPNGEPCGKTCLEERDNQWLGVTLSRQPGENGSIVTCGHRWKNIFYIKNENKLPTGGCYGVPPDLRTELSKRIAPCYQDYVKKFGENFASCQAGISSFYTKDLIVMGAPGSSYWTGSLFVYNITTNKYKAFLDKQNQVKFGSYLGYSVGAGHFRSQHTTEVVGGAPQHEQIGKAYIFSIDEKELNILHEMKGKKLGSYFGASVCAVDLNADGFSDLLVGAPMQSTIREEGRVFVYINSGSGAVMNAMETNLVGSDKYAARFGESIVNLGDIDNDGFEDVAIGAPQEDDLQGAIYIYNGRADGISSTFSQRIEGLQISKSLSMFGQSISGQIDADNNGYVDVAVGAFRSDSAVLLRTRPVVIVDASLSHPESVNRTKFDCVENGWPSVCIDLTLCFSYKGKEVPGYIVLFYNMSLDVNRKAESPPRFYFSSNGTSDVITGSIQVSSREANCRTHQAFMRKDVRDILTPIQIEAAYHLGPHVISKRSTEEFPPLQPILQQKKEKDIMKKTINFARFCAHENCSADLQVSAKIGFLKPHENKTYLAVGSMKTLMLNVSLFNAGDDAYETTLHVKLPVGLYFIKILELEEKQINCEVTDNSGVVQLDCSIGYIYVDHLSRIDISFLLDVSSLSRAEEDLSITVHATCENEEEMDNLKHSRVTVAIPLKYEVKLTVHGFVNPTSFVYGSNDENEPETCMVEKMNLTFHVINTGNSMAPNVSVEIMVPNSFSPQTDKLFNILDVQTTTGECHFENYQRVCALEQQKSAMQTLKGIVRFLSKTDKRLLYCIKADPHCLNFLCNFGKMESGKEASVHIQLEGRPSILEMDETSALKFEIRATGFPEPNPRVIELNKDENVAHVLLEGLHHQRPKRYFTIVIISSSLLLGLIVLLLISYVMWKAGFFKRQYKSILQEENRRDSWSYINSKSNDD
T2 sequence (P26010 20-798): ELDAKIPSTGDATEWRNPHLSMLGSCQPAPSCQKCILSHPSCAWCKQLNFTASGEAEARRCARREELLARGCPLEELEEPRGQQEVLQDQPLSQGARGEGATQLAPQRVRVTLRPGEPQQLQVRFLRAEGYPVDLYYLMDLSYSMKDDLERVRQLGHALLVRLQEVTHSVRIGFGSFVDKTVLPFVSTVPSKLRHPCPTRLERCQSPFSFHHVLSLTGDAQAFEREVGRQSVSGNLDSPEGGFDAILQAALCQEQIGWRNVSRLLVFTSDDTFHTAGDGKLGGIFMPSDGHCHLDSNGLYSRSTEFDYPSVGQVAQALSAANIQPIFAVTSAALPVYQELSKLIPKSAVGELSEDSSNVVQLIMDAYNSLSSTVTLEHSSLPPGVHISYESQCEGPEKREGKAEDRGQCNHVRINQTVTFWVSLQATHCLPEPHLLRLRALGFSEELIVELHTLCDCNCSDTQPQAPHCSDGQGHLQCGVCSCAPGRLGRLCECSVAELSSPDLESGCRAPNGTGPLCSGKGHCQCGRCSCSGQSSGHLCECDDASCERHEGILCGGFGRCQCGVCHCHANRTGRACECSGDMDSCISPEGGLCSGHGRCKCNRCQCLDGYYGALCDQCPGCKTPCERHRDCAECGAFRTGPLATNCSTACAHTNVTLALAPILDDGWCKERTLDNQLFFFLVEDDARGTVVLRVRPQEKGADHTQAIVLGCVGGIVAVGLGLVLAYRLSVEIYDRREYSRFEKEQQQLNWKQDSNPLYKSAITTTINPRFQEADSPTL
Procedure: as §1
Example 7 describes a cell adhesion assay.
To each well of a 96 well plate, 100 ug of recombinant human MAdCAM in 100 ul PBS is added and incubated overnight at 4° C. After incubation MAdCAM is removed by aspiration and 200 ul of PBS+1% BSA is added to block the plate for 2 hours at 37° C. and 5% CO2. During this incubation dilution curves of compound are made in 100% DMSO in 96 well V bottom plates. 1.75 ul of diluted compounds are then transferred to a new 96 well U bottom plate containing 20 ul of assay media (phosphate free DMEM+25 mM HEPES+1% BSA). To this an additional 155 ul of assay media is added with mixing by pipetting up and down. This mixture is allowed to incubate for 15 minutes at 37° C. and 5% CO2. After incubation 175 ul of assay media containing 2e6/mL RPMI8866 cells is added to compound containing wells without mixing and plate is allowed to incubate for another 15 minutes at 37° C. and 5% CO2. During this incubation MAdCAM coated plates are removed from incubator and washed twice with 200 ul PBS+0.1% BSA. […] This plate is then incubated at 37° C. and 5% CO2 for 1 hour. After incubation plates are washed twice with 200 ul and once with 50 ul of phenol free RPMI+1% BSA. A final 50 ul of phenol free RPMI+1% BSA is added to wells after last wash. Next 50 ul of Promega cell titer glow is added to the wells. Plate is incubated on shaker for 2 minutes at 200 RPM followed by another 8 minutes off shaker before having the luminescence read on a Biotek Citation 5 plate reader. Raw data is converted to % inhibition compared to bottom of curve and analyzed using a 4-parameter non linear curve in Prism to determine IC50 and IC90.

| IC50 [1] [nM] | IC50 [2] [nM] | SMILES |
| --- | --- | --- |
| ≤ 10 |  | Cc1cc(C)c(-c2cc(C)c(F)c([C@H](CC(=O)O)NC(=O)C(CC(C)C)n3cc(CCN(C)C)c(C(F)(F)F)cc3=O)c2)c(C)c1 (single isomer, unassigned) [AC-P2] |
|  | < 5 | Cc1cc(-c2c(C)cccc2C)cc([C@H](CC(=O)O)NC(=O)[C@H](CC(C)C)n2cc(CCN3CC[C@@H](F)C3)cc(F)c2=O)c1F (single isomer, unassigned) [AU-P2] |

— patent US11370773B1, “Inhibiting human integrin (alpha-4) (beta-7)” (Morphic Therapeutic, Inc., priority 2019, dated 2022)
